The values below come from patent publication US10273222B2 (CELGENE QUANTICEL RESEARCH, INC., priority 2013, dated 2019).

Common to all, as to type: biochemical
Assay [1] concerns the target FBXL10 (Homo sapiens (Human), UniProt Q8NHM5). Briefly: FBXL10 in vitro enzyme inhibition assay (AlphaScreen). The protocol: Reaction product was determined quantitatively by AlphaScreen detection after the addition of detection reagents anti-H3K36me1 antibody, AlphaScreen® Streptavidin-coated Donor beads, and AlphaScreen® Protein A Acceptor beads in 50 mM HEPES, pH7.3, 10 mM NaCl, 0.005% Brij35, 5 mM EDTA, 2 mg/ml BSA to final 10 μg/ml beads.
Plates were incubated at room temperature for 40 minutes, followed by addition of 3 μl of 50 μg/ml AlphaScreen® Streptavidin-coated Donor beads and AlphaScreen® Protein A Acceptor beads in 50 mM HEPES, pH7.3, 10 mM NaCl, 0.005% Brij35, 5 mM EDTA, 2 mg/ml BSA. Plates were read by EnVisionMultilabel Reader in AlphaScreen mode after a minimum of 2 hour or up to overnight incubation at room temperature. The AlphaScreen signal for each well was used to determine inhibition constant (IC50).

Assay [2] addresses JMJD2C (Homo sapiens (Human), UniProt Q9H3R0). Briefly: JMJD2C in vitro enzyme inhibition assay (TR-FRET).
Assay [3] has as its target Jarid1A (Homo sapiens (Human), UniProt P29375). Briefly: Jarid1A in vitro enzyme inhibition assay (TR-FRET). The text has this: The enzymatic assay of Jarid1A activity is based upon Time Resolved-Fluorescence Resonance Energy Transfer (TR-FRET) detection.
Assay [4] addresses Jarid1B (Homo sapiens (Human), UniProt Q9UGL1). Briefly: Jarid1B in vitro enzyme inhibition assay (TR-FRET).
Protocol: This assay determines the ability of a test compound to inhibit Jarid1A, Jarid1B, JMJD2C, and JMJD2A demethylase activity.
The ability of test compounds to inhibit the activity of Jarid1B was determined in 384-well plate format under the following reaction conditions: 0.8 nM Jarid1B, 300 nM H3K4me3-biotin labeled peptide (Anaspec cat #64357), 2 μM alpha-ketoglutaric acid in assay buffer of 50 mM HEPES, pH7.3, 0.005% Brij35, 0.5 mM TCEP, 0.2 mg/ml BSA, 50 μM sodium L-ascorbate, and 2 μM ammonium iron(II) sulfate. Reaction product was determined quantitatively by TR-FRET after the addition of detection reagent Phycolink Streptavidin-allophycocyanin (Prozyme) and Europium-anti-mono- or di-methylated histone H3 lysine 4 (H3K4me1-2) antibody (PerkinElmer) in the presence of 5 mM EDTA in LANCE detection buffer (PerkinElmer) at a final concentration of 25 nM and 1 nM, respectively.
The assay reaction was initiated by the following: 2 μl of the mixture of 900 nM H3K4me3-biotin labeled peptide and 6 μM alpha-ketoglutaric acid with 2 μl of 11-point serial diluted inhibitor in 3% DMSO was added to each well of the plate, followed by the addition of 2 μl of 2.4 nM Jarid1B to initiate the reaction. The reaction mixture was incubated at room temperature for 30 minutes, and terminated by the addition of 6 μl of 5 mM EDTA in LANCE detection buffer containing 50 nM Phycolink Streptavidin-allophycocyanin and 2 nM Europium-anti-H3K4me1-2 antibody. Plates were read by EnVisionMultilabel Reader in TR-FRET mode (excitation at 320 nm, emission at 615 nm and 665 nm) after 1 hour incubation at room temperature. A ratio was calculated (665/615) for each well and fitted to determine inhibition constant (IC50).

Chain of FBXL10 (Q8NHM5 1-650): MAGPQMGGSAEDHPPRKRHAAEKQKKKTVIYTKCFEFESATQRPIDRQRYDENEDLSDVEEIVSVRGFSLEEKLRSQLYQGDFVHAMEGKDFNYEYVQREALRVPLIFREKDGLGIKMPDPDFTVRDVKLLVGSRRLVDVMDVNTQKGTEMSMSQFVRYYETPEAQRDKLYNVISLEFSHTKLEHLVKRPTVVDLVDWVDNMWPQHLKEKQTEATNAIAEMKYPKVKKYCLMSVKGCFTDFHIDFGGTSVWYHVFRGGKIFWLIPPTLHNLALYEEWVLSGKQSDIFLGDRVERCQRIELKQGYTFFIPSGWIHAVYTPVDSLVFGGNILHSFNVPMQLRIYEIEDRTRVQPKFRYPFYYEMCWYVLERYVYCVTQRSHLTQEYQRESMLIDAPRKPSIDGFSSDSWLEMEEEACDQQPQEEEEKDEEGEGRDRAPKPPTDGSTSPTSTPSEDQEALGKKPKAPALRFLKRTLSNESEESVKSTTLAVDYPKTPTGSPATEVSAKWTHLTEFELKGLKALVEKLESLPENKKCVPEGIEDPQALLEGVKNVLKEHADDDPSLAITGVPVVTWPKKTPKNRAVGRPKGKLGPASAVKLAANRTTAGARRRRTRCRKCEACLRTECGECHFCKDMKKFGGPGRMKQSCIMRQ
Chain of JMJD2C (Q9H3R0 2-372): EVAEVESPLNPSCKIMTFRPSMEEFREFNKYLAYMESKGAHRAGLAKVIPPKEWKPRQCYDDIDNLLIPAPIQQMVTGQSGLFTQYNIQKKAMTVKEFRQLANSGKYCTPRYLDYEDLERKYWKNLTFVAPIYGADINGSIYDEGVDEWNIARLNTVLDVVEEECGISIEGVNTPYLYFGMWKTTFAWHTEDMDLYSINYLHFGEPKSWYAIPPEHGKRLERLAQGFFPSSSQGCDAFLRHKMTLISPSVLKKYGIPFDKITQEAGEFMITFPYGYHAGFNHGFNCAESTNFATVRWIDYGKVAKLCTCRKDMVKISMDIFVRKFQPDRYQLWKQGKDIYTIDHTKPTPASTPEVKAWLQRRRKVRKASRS
Chain of Jarid1B (Q9UGL1 2-751): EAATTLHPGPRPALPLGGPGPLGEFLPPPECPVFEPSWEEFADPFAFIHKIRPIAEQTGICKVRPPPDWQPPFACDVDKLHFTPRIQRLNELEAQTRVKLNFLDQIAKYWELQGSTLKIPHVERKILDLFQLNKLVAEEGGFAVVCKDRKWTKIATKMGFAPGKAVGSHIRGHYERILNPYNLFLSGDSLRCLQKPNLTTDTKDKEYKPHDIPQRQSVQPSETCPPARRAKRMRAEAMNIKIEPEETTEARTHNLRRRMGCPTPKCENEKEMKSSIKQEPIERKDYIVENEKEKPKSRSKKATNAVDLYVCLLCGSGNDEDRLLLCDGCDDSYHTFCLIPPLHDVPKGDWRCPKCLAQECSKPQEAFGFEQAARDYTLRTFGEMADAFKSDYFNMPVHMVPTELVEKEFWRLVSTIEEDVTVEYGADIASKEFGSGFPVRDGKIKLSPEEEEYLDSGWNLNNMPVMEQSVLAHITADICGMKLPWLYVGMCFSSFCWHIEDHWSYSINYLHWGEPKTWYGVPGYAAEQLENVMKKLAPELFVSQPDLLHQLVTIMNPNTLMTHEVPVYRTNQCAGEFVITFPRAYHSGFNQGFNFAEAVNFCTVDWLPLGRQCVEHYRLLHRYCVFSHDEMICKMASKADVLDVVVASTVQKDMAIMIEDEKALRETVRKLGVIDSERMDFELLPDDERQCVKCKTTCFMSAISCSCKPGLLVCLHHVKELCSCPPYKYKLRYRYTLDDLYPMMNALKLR
Chain of Jarid1A (P29375 1-1090): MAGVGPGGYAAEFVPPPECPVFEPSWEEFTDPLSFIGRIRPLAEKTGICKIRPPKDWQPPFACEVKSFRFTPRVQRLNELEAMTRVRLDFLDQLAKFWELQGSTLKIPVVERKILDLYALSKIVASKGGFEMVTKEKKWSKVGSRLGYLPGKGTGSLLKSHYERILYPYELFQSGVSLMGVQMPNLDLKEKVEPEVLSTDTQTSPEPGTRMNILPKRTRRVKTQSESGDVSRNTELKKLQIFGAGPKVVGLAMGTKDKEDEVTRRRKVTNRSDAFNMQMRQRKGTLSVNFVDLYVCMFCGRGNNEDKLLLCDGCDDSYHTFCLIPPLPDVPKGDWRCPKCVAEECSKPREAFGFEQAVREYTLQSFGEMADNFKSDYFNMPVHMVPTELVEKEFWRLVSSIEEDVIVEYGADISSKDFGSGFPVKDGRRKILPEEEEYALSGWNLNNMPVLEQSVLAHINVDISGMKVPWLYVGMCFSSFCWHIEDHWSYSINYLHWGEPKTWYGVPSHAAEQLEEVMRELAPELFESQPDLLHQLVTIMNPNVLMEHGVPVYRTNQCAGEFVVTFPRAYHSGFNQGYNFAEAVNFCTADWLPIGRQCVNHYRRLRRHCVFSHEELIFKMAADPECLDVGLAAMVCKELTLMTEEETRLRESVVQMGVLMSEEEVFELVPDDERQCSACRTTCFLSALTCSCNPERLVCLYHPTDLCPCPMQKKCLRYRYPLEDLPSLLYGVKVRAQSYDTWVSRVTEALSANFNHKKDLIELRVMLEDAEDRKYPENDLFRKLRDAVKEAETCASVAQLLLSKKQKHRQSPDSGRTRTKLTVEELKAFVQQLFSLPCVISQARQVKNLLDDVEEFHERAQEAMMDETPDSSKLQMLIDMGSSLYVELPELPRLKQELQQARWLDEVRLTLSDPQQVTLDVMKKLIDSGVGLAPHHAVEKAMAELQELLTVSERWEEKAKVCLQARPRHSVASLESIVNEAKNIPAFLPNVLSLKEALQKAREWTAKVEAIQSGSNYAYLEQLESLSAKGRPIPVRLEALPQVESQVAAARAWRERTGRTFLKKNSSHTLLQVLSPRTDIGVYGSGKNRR

Turning to `O=C(O)c1ccnc(-c2cn(CCN(Cc3ccc(Cl)c(Cl)c3)C3CC3)cn2)c1` [Example 86, 2-[1-[2-[cyclopropyl-[(3,4-dichlorophenyl)methyl]amino]ethyl]imidazol-4-yl]pyridine-4-carboxylic acid], the IC50 in assay [1] is not above 100 nM; in assay [2], 100 to 1000 nM; in assay [3], not above 100 nM; in assay [4] it was not above 100 nM.
For the compound `Cn1cnc(-c2cc(C(=O)O)ccn2)c1-c1ccc(OC(F)(F)F)cc1` [Example 13, 2-{1-methyl-5-[4-(trifluoromethoxy)phenyl]-1H-imidazol-4-yl}pyridine-4-carboxylic acid], the concentration for half-maximal inhibition (IC50) in assay [1] fell in the range of 100 to 1000 nM; in assay [2] it was 1000 to 10000 nM; in assay [3] it was 100 to 1000 nM; in assay [4], 100 to 1000 nM.
As for `Cn1cnc(-c2cc(C(=O)O)ccn2)c1-c1ccc(Cl)cc1C(F)(F)F` [Example 27, 2-{5-[4-chloro-2-(trifluoromethyl)phenyl]-1-methyl-1H-imidazol-4-yl}pyridine-4-carboxylic acid], the half-inhibitory concentration (IC50) is not above 100 nM in assay [1], 1000 to 10000 nM in assay [2], not above 100 nM in assay [3] and not above 100 nM in assay [4].
For `O=C(O)c1ccnc(-c2cn(CCN3Cc4ccccc4C3)cn2)c1` [Example 76, 2-[1-[2-(1,3-dihydroisoindol-2-yl)ethyl]imidazol-4-yl]pyridine-4-carboxylic acid], the IC50 in assay [1], in assay [2], in assay [3] and in assay [4] was not above 100 nM each time.
As to `Cn1cnc(-c2cc(C(=O)O)ccn2)c1-c1ccc(Cl)c(Cl)c1` [Example 28, 2-[5-(3,4-dichlorophenyl)-1-methyl-1H-imidazol-4-yl]pyridine-4-carboxylic acid], the half-maximal inhibitory concentration (IC50) is 100 to 1000 nM in assay [1], 100 to 1000 nM in assay [2], not above 100 nM in assay [3] and not above 100 nM in assay [4].
Turning to `O=C(O)c1ccnc(-c2cn(CCc3cccc(Cl)c3)cn2)c1` [Example 113, 2-[1-[2-(3-chlorophenyl)ethyl]imidazol-4-yl]pyridine-4-carboxylic acid], the half-inhibitory concentration (IC50) is not above 100 nM in assay [1], 100 to 1000 nM in assay [2], not above 100 nM in assay [3] and not above 100 nM in assay [4].
For the compound `CN1CCOC(Cn2cnc(-c3cc(C(=O)O)ccn3)c2)C1` (stereo not shown) [Example 54, 2-{1-[(4-methylmorpholin-2-yl)methyl]-1H-imidazol-4-yl}pyridine-4-carboxylic acid], the IC50 in assay [1], in assay [2], in assay [3] and in assay [4] was not above 100 nM throughout.
As for `O=C(O)c1ccnc(-c2cn(CC3CCCO3)cn2)c1` (stereo not shown) [Example 51, 2-[1-(tetrahydrofuran-2-ylmethyl)-1H-imidazol-4-yl]pyridine-4-carboxylic acid], the IC50 in assay [1] was not above 100 nM; in assay [2], 100 to 1000 nM; in assay [3] it was not above 100 nM; in assay [4], not above 100 nM.
On to `O=C(O)c1ccnc(-c2cn(CCC3CCCCC3)cn2)c1` [Example 114, 2-[1-(2-cyclohexylethyl)imidazol-4-yl]pyridine-4-carboxylic acid], for which the IC50 in assay [1] is not above 100 nM; in assay [2], 100 to 1000 nM; in assay [3] it was not above 100 nM; in assay [4], not above 100 nM.
Consider `O=C(O)c1ccnc(-c2cn(CCNCc3ccc(F)cc3)cn2)c1` [Example 74, 2-[1-[2-[(4-fluorophenyl)methylamino]ethyl]imidazol-4-yl]pyridine-4-carboxylic acid], for which the IC50 in assay [1], in assay [2], in assay [3] and in assay [4] was not above 100 nM throughout.
For the compound `Cn1cnc(-c2cc(C(=O)O)ccn2)c1-c1ccc(Cl)c(C(F)(F)F)c1` [Example 31, 2-{5-[4-chloro-3-(trifluoromethyl)phenyl]-1-methyl-1H-imidazol-4-yl}pyridine-4-carboxylic acid], the IC50 in assay [1] is 100 to 1000 nM; in assay [2] it was 100 to 1000 nM; in assay [3], not above 100 nM; in assay [4] it was not above 100 nM.
Regarding `COCCCn1cnc(-c2cc(C(=O)O)ccn2)c1-c1ccc(Cl)c(F)c1` [Example 36, 2-[5-(4-chloro-3-fluorophenyl)-1-(3-methoxypropyl)-1H-imidazol-4-yl]pyridine-4-carboxylic acid], the IC50 in assay [1] was not above 100 nM; in assay [2], 1000 to 10000 nM; in assay [3], not above 100 nM; in assay [4] it was not above 100 nM.
Turning to `O=C(O)c1ccnc(-c2cn(Cc3ccccn3)cn2)c1` [Example 47, 2-[1-(pyridin-2-ylmethyl)-1H-imidazol-4-yl]pyridine-4-carboxylic acid], the 50% inhibitory concentration (IC50) in assay [1] was not above 100 nM; in assay [2], 100 to 1000 nM; in assay [3] it was not above 100 nM; in assay [4], not above 100 nM.
For the compound `CCOc1cc(Cl)ccc1-c1c(-c2cc(C(=O)O)ccn2)ncn1C` [Example 32, 2-[5-(4-chloro-2-ethoxyphenyl)-1-methyl-1H-imidazol-4-yl]pyridine-4-carboxylic acid], the IC50 in assay [1] was 100 to 1000 nM; in assay [2] it was 1000 to 10000 nM; in assay [3] it was not above 100 nM; in assay [4] it was not above 100 nM.
With `C#Cc1ccc(-c2c(-c3cc(C(=O)O)ccn3)ncn2C)cc1` [Example 21, 2-[5-(4-ethynylphenyl)-1-methyl-1H-imidazol-4-yl]pyridine-4-carboxylic acid], the 50% inhibitory concentration (IC50) is not above 100 nM in assay [1], 100 to 1000 nM in assay [2], not above 100 nM in assay [3] and not above 100 nM in assay [4].
Consider `COc1ccccc1CNCCn1cnc(-c2cc(C(=O)O)ccn2)c1` [Example 77, 2-[1-[2-[(2-methoxyphenyl)methylamino]ethyl]imidazol-4-yl]pyridine-4-carboxylic acid], for which the IC50 in assay [1], in assay [2], in assay [3] and in assay [4] was not above 100 nM throughout.
As to `O=C(O)c1ccnc(-c2cn(C3CCNC3)cn2)c1` (stereo not shown) [Example 52, 2-[1-(pyrrolidin-3-yl)-1H-imidazol-4-yl]pyridine-4-carboxylic acid], the half-maximal inhibitory concentration (IC50) in assay [1] is 100 to 1000 nM; in assay [2], not above 100 nM; in assay [3] it was not above 100 nM; in assay [4], not above 100 nM.
Take `CCOc1ccc(-c2c(-c3cc(C(=O)O)ccn3)ncn2C)cc1` [Example 14, 2-[5-(4-ethoxyphenyl)-1-methyl-1H-imidazol-4-yl]pyridine-4-carboxylic acid]: the IC50 in assay [1] was 100 to 1000 nM; in assay [2] it was 1000 to 10000 nM; in assay [3], 100 to 1000 nM; in assay [4] it was 100 to 1000 nM.
`Cn1cnc(-c2cc(C(=O)O)ccn2)c1-c1ccc(C(F)(F)F)cc1` [Example 6, 2-{1-methyl-5-[4-(trifluoromethyl)phenyl]-1H-imidazol-4-yl}pyridine-4-carboxylic acid]: the IC50 in assay [1] is 100 to 1000 nM; in assay [2] it was 1000 to 10000 nM; in assay [3], not above 100 nM; in assay [4], not above 100 nM.
For the compound `CN(CCn1cnc(-c2cc(C(=O)O)ccn2)c1)Cc1ccccc1` [Example 57, 2-(1-{2-[benzyl(methyl)amino]ethyl}-1H-imidazol-4-yl)pyridine-4-carboxylic acid], the 50% inhibitory concentration (IC50) in assay [1], in assay [2], in assay [3] and in assay [4] was not above 100 nM throughout.
On to `COCCn1cnc(-c2cc(C(=O)O)ccn2)c1-c1ccc(Cl)c(F)c1` [Example 37, 2-[5-(4-chloro-3-fluorophenyl)-1-(2-methoxyethyl)-1H-imidazol-4-yl]pyridine-4-carboxylic acid], for which the IC50 is not above 100 nM in assay [1], 1000 to 10000 nM in assay [2], not above 100 nM in assay [3] and not above 100 nM in assay [4].
For the compound `Cn1cnc(-c2cc(C(=O)O)ccn2)c1-c1cccc(CO)c1` [Example 11, 2-{5-[3-(hydroxymethyl)phenyl]-1-methyl-1H-imidazol-4-yl}pyridine-4-carboxylic acid], the IC50 lay in the range of 100 to 1000 nM in assay [1], 1000 to 10000 nM in assay [2], 100 to 1000 nM in assay [3] and 100 to 1000 nM in assay [4].
In the case of `N#Cc1cccc2c1CN(CCn1cnc(-c3cc(C(=O)O)ccn3)c1)C2` [Example 83, 2-[1-[2-(4-cyano-1,3-dihydroisoindol-2-yl)ethyl]imidazol-4-yl]pyridine-4-carboxylic acid], the half-maximal inhibitory concentration (IC50) in assay [1], in assay [2], in assay [3] and in assay [4] was not above 100 nM each time.
On to `O=C(O)c1ccnc(-c2cn(CC3CCCN3)cn2)c1` (stereo not shown) [Example 53, 2-[1-(pyrrolidin-2-ylmethyl)-1H-imidazol-4-yl]pyridine-4-carboxylic acid], for which the IC50 in assay [1] is 100 to 1000 nM; in assay [2] it was not above 100 nM; in assay [3] it was not above 100 nM; in assay [4] it was not above 100 nM.
With `O=C(O)c1ccnc(-c2cn(CCN3Cc4cccc(Cl)c4C3)cn2)c1` [Example 81, 2-[1-[2-(4-chloro-1,3-dihydroisoindol-2-yl)ethyl]imidazol-4-yl]pyridine-4-carboxylic acid], the IC50 in assay [1], in assay [2], in assay [3] and in assay [4] was not above 100 nM each time.
